Results: patent US20150071856A1, “ANTAGONISTIC PEPTIDES FOR FRIZZLED-1 AND FRIZZLED-2” (Universiteit Maastricht, priority 2013, published 2015)
Residues, ends and D or L forms follow the SMILES beside them.

Molecular target: T1, hFzd-5 (Homo sapiens, UniProt Q13467)
T1 construct: expressed in transfected cells; host or cells: HEK293 superTOPflash (transient, Fugene6, pcDNA3.0)
Assay: Receptor specificity: luciferase in HEK293 superTOPflash cells overexpressing hFzd-5
Type: cell-based
Conditions: UM206 1.10^−8 M
Protocol: In FIG. 3, Panel E, the efficacy of UM206 to block the Wnt3a-induced activation of luciferase activity in HEK293 superTOPflash cells transfected with different Fzds is shown.
The cell lines were cultured in 75 cm^2 culture flasks (Corning, Schiphol, the Netherlands) in Dulbeco's modified essential medium with L-glutamine (2 mM), 10% fetal calf serum (Invitrogen, Merelbeke, Belgium), and 1% gentamycin (Sigma-Aldrich, Zwijndrecht, The Netherlands). Before starting the experiment, the cell lines were treated with plasmocin 25 μg/ml (Invivogen, Toulose, France) and tested with a mycoalert mycoplasma detection kit (Lonza, Rockland Me., USA). Cells were transiently transfected with Fugene6 (Roche, Indianapolis Ind., USA) with plasmid DNA, pcDNA3.1/hygro (Invitrogen) with frizzled-1/2/4 or Wnts 3a-5a or with pcDNA3.0 (Invitrogen) containing the β-catenin or frizzled-5 sequence. After transfection, the cells were cultured for 24 hours in conditioned medium, collected from the cultured L-cells, L-cells with Wnt3a or 5a (Invitrogen). At the same moment the antagonist was added.

T1 sequence (Q13467 27-585): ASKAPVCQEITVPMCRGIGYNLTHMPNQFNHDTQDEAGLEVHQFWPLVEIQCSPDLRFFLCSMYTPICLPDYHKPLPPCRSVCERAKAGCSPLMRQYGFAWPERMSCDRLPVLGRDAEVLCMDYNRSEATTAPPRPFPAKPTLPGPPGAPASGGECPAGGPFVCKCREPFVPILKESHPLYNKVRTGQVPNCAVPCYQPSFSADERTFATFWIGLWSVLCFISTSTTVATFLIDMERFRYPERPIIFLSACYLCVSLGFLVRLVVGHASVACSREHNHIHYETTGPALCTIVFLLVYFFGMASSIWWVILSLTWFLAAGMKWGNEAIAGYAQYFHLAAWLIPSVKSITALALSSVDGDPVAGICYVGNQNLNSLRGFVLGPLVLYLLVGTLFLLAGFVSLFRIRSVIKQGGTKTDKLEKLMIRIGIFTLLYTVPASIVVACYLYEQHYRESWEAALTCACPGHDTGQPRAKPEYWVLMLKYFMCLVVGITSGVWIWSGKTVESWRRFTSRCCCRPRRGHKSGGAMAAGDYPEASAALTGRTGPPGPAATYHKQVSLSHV

CSCC[C@H](NC(=O)CNC(=O)[C@H](CCC(=O)O)NC(=O)[C@H](CO)NC(=O)[C@@H](NC(=O)[C@H](CCCCN)NC(=O)[C@H](CC(N)=O)NC(=O)[C@H](CS)NC(C)=O)[C@@H](C)O)C(=O)N[C@@H](CC(=O)O)C(=O)NCC(=O)N[C@@H](CS)C(=O)N[C@@H](CCC(=O)O)C(=O)N[C@@H](CC(C)C)C(N)=O [UM206, Ac-Cys-Asn-Lys-Thr-Ser-Glu-Gly-Met-Asp-Gly-Cys-Glu-Leu-NH2] (Ac-CNKTSEGMDGCEL-NH2)
effect on Wnt3a-induced luciferase activity, frizzled-5: no effect
